Molecular target: T1, SsAT (acetyltransferase, accession No. ZP_05014886) (Streptomyces sviceus, UniProt B5HKU0)
T1 construct: gene SSEG_00025; recombinant N-terminally His-tagged SsAT, freshly purified
Assay: ITC, pH […]°C, one-site model, n close to […]
Format: binding

T1 sequence (B5HKU0 entry or part of it): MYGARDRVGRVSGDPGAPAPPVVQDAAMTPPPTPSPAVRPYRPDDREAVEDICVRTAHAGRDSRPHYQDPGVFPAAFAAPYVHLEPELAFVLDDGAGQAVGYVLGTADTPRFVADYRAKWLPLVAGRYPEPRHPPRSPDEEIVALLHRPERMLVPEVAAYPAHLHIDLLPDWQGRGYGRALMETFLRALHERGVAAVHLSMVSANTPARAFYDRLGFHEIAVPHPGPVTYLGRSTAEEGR

Kd: 20 µM
Compound: CC(=O)SCCNC(=O)CCNC(=O)[C@H](O)C(C)(C)COP(=O)(O)OP(=O)(O)OC[C@H]1O[C@@H](n2cnc3c(N)ncnc32)[C@H](O)[C@@H]1OP(=O)(O)O [acetyl coenzyme A]

From paper PMC3919268, “Three-dimensional structure of a Streptomyces sviceus GNAT acetyltransferase with similarity to the C-terminal domain of the human GH84 O-GlcNAcase” (Acta Crystallographica Section D: Biological Crystallography, 2013)
